What was measured:
Assay in all cases: normalised viability (% of control), CellTiter-Blue; higher = more viable cells (about 100 = DMSO control)
Conditions in all cases: incubation time: 72 h
[1] = system: CAL-85-1
Procedure, shortened: (§1)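 Compound dissolved in 5 µl medium was pre-loaded into 384-well plates, and breast cancer cell lines in 20 µl suspension were seeded on top and incubated 72 h. After adding 2.5 µl CellTiter-Blue reagent for 2 h at 37 °C, fluorescence was read at 560/590 nm. Plates were normalised to vehicle (100) and a positive kill control (0), with Z'-factor quality control. Each value is normalised viability at a single listed concentration from the series.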

[2] = system: MDA-MB-453
Procedure, shortened: as §1

[3] = system: CAL-148
Procedure, shortened: as §1

[4] = system: HCC1143
Procedure, shortened: as §1

[5] = system: MDA-MB-231
Procedure, shortened: as §1

[6] = system: CAL-120
Procedure, shortened: as §1

[7] = system: CAL-51
Procedure, shortened: as §1

[8] = system: Hs578T
Procedure, shortened: as §1

[9] = system: DU-4475
Procedure, shortened: as §1

[10] = system: HDQ-P1
Procedure, shortened: as §1

[11] = system: BT-549
Procedure, shortened: as §1

[12] = system: BT-474
Procedure, shortened: as §1

[13] = system: MDA-MB-468
Procedure, shortened: as §1

[14] = system: HCC1937
Procedure, shortened: as §1

[15] = system: MFM-223
Procedure, shortened: as §1

[16] = system: SK-BR-3
Procedure, shortened: as §1

COc1cc(F)c(F)c(Nc2ccc(I)cc2F)c1NS(=O)(=O)C1(C[C@H](O)CO)CC1 [RDEA119]
normalised viability [%]
Conditions	3 nM	10 nM	30 nM	100 nM	1000 nM	10000 nM
[1]	95.2	–	98.8	97.3	–	–
[2]	87.9	–	95.5	98.7	–	–
[3]	91.9	–	80.7	80	–	–
[4]	–	117	–	–	62.8	61.7
[5]	–	73.7	–	–	28.7	29.3
[6]	–	103	–	–	64.5	47.3
[7]	97	–	84.5	81.2	–	–
[8]	–	103	–	–	69.7	54.5
[9]	91.4	–	61.2	28.2	–	–
[10]	81.5	–	88	110	–	–
[11]	–	98.7	–	–	87.5	66.4
[12]	–	108	–	–	103	110
[13]	–	94.2	–	–	78.3	51
[14]	–	102	–	–	72.4	62.8
[15]	–	94.8	–	–	75.7	54.7
[16]	–	110	–	–	81.8	100

— the supplement of paper PMC4862054
